Assays:
[1] = biological target: WEE1 kinase enzyme (Homo sapiens (Human), UniProt P30291); experiment: WEE1 IC50 determination, LanthaScreen Terbium labeled TR-FRET kinase assay; assay type: biochemical; details: WEE1 enzyme 1 nM
Experimental: IC50 values of compounds against WEE1 kinase enzyme were determined by LanthaScreen™ Terbium Labeled TR-FRET assay. Kinase assays were performed in 1× kinase buffer (# PV6135, Invitrogen, Life Technologies Grand Island, N.Y.) where total reaction volume was 10 μl in low-volume 384-well plates (#4511, Corning). Serially diluted compounds (3-fold) were incubated with WEE1 Enzyme (1 nM) (# PR7373A, Invitrogen, Life Technologies Grand Island, N.Y.) for 10 min, following which a mixture of ATP […] (# A1852, Sigma, St-Louis, Mo.) and fluorescent-PolyGT substrate (200 nM) (# PV3610, Invitrogen, Life Technologies Grand Island, N.Y.) was added and incubated in dark at room temperature for 1 h. After 1 h, 10 μl stop solution containing Terbium labeled antibody (4 nM) (# PV3529, Invitrogen, Life Technologies Grand Island, N.Y.) and EDTA (# E5134, Sigma, St-Louis, Mo.) (20 mM) in TR-FRET dilution buffer (# PV3574, Invitrogen, Life Technologies Grand Island, N.Y.) was added. Readings were taken in a Synergy Neo Plate reader (BioTek, Winooski) at single excitation of 340 nm and Dual emission at 495 nm and 520 nm respectively.
The % activity of test samples was calculated as (Sample−Min)*100/(Max−Min). [Max: DMSO control, complete reaction with enzyme & DMSO and Min: No enzyme & DMSO]. Percent inhibition (100-% activity) was fitted to the “four-parameter logistic model” in XLfit for determination of IC50 values.

[2] = system: A427 cells; experiment: Cytotoxicity assay (resazurin), A427 cells, 72 hr; assay type: cell-based; details: Homo sapiens, A-427, read-out: Cell Viability A427 IC50
Experimental: A549 (CCL-185; ATCC) and A427 (HTB-53; ATCC), both lung epithelial cell lines were seeded in their respective medium (DMEM/MEM, 10569044/41090101; Gibco) at a cell count of 1500 cells per 100 μL per well in a 96 well edge plate (167425; ThermoFisher). Cells were allowed to grow at 37° C. for 24 hr in 5% CO2 environment (culture conditions) in a Nuaire incubator (humidified). Serially diluted test compounds (100 μL) within the desired testing concentration ranges were added to the culture plate were further incubated in culture conditions for 72 hr and 96 hr for A427 and A549 respectively. The experiment was terminated at the designated incubation time by replacing the medium with 100 μL of 1 mM of resazurin (R7017; Sigma) prepared in respective culture medium, and the plates were further incubated in culture conditions for 4-6 hr. Fluorescence was recorded using a multimodal plate reader (Biotek Synergy Neo) at an excitation wavelength of 535 nm and emission wavelength of 590 nm to obtain relative fluorescence units. Data analysis was done by subtracting the background fluorescence (only medium blank) value from each reading and then normalizing with the vehicle control (DMSO treated cells) to obtain percent survival/proliferation. Percent survival was then subtracted by 100 to get the percent inhibition of proliferation which was used to calculate IC50 values. Potency of compounds in other cell lines (As-Pc-1, Panc-10.05, MDAMB231, A172) was determined in an analogous manner.

Sequence of WEE1 kinase enzyme (P30291 whole entry): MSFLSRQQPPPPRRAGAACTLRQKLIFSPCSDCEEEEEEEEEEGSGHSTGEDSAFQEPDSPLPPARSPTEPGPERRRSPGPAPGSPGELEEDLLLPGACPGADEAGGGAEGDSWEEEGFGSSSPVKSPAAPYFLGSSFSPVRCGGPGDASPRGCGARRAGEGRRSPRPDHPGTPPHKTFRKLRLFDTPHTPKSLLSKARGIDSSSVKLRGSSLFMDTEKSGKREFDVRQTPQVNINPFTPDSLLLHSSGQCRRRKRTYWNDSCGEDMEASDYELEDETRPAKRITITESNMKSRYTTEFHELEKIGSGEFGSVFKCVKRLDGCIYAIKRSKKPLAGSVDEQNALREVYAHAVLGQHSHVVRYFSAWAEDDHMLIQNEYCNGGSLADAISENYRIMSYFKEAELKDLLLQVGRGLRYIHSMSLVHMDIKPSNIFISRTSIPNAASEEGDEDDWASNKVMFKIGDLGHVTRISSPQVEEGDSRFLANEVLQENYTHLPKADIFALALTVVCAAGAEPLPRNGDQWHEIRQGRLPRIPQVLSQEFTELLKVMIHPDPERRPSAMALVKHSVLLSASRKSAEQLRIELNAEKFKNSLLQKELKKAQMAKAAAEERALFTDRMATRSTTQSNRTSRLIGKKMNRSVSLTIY

O=C1c2cnc(Nc3ccc(N4CCOCC4)cc3)nc2OCN1c1c(Cl)cccc1Cl [Example 1.2]
IC50 [1]: 3.26 µM

CCS(=O)(=O)N1CCN(c2ccc(Nc3ncc4c(n3)OCN(c3c(Cl)cccc3Cl)C4=O)cc2)CC1 [Example 1.15]
IC50 [1]: 1.56 µM

CN1CCN(c2ccc(Nc3ncc4c(n3)OCN(c3ccc(F)cc3Cl)C4=O)cc2)CC1 [Example 1.11]
IC50 [1]: 0.837 µM

O=C1c2cnc(Nc3ccc4[nH]ncc4c3)nc2OCN1c1c(Cl)cccc1Cl [Example 1.87]
IC50 [1]: 0.777 µM | IC50 [2]: 25.4 µM

C[C@@H]1CN(c2ccc(Nc3ncc4c(n3)OCN(c3c(Cl)cccc3Cl)C4=O)cc2)CCN1 [Example 1.173]
IC50 [1]: 0.087 µM | IC50 [2]: 3.32 µM

CC(C)(O)C(=O)N1Cc2cc(Nc3ncc4c(n3)OCN(c3c(Cl)cccc3Cl)C4=O)ccc2C(C)(C)C1 [Example 1.6]
IC50 [1]: 0.279 µM

COc1cc(Nc2ncc3c(n2)SCN(c2c(Cl)cccc2Cl)C3=O)ccc1N1CCC(N(C)C)CC1 [Example 1.242]
IC50 [1]: 0.331 µM | IC50 [2]: 1.62 µM

O=C1c2cnc(Nc3ccc4c(c3)NCCN4)nc2OCN1c1c(Cl)cccc1Cl [Example 1.226]
IC50 [1]: 0.188 µM | IC50 [2]: 5.36 µM

CN1Cc2cc(Nc3ncc4c(n3)SCN(c3c(Cl)cccc3Cl)C4=O)ccc2C(C)(C)C1 [Example 1.241]
IC50 [1]: 0.095 µM | IC50 [2]: 3.49 µM

O=C1c2cnc(Nc3ccc(N4CCN(C5CC5)CC4)cc3)nc2OCN1c1c(Cl)cccc1Cl [Example 1.21]
IC50 [1]: 1.39 µM

Cc1cc(Nc2ncc3c(n2)OCN(c2c(Cl)cccc2Cl)C3=O)cc(C)c1N1CCNCC1 [Example 1.176]
IC50 [1]: 0.105 µM | IC50 [2]: 3.25 µM

O=C1NCCc2ccc(Nc3ncc4c(n3)OCN(c3c(Cl)cccc3Cl)C4=O)cc21 [Example 1.23]
IC50 [1]: 0.607 µM

CC1Oc2nc(Nc3ccc(N4CCNCC4)cc3)ncc2C(=O)N1c1c(Cl)cccc1Cl (stereo not shown) [Example 1.17]
IC50 [1]: 0.156 µM

O=C1c2cnc(Nc3ccc4c(c3)CNCC4)nc2SCN1c1c(Cl)cccc1Cl [Example 1.233]
IC50 [1]: 0.165 µM | IC50 [2]: 7.21 µM

CN(C)C1CCN(c2ccc(Nc3ncc4c(n3)OCN(c3c(Cl)cccc3Cl)C4=O)cc2)CC1 [Example 1.223]
IC50 [1]: 0.032 µM | IC50 [2]: 1.66 µM

CC1CCN(c2ccc(Nc3ncc4c(n3)OCN(c3c(Cl)cccc3Cl)C4=O)cc2)CC1 [Example 1.59, 3-(2,6-dichlorophenyl)-7-(4-(4-methylpiperidin-1-yl)phenylamino)-2H-pyrimido[5,4-e][1,3]oxazin-4(3H)-one]
IC50 [1]: > 5 µM | IC50 [2]: 14 µM

CC1(C)CNCc2cc(Nc3ncc4c(n3)SCN(c3c(F)cccc3Cl)C4=O)ccc21 [Example 1.238]
IC50 [1]: 0.045 µM | IC50 [2]: 5.29 µM

CC1(C)CNCc2cc(Nc3ncc4c(n3)OCN(c3c(F)cccc3Cl)C4=O)ccc21 [Example 1.28]
IC50 [1]: 0.035 µM

CC1CN(c2ccc(Nc3ncc4c(n3)SCN(c3c(Cl)cccc3Cl)C4=O)cc2Cl)CCN1 (stereo not shown) [Example 1.244]
IC50 [1]: 0.351 µM | IC50 [2]: 0.51 µM

C[C@H]1CN(c2ccc(Nc3ncc4c(n3)OCN(c3c(Cl)cccc3Cl)C4=O)cc2Cl)CCN1 [Example 1.229]
IC50 [1]: 0.185 µM | IC50 [2]: 2.25 µM

O=C1c2cnc(Nc3ccc4c(c3)CCNC4)nc2SCN1c1c(Cl)cccc1Cl [Example 1.234]
IC50 [1]: 0.202 µM | IC50 [2]: 4.84 µM

C[C@@H]1CN(c2ccc(Nc3ncc4c(n3)OCN(c3c(Cl)cccc3Cl)C4=O)cc2F)CCN1 [Example 1.174]
IC50 [1]: 0.032 µM | IC50 [2]: 3.4 µM

O=C1c2cnc(Nc3ccc(N4CCC(F)(F)CC4)cc3)nc2OCN1c1c(Cl)cccc1Cl [Example 1.63]
IC50 [1]: > 5 µM

C[C@@H]1CN(c2ccc(Nc3ncc4c(n3)OCN(c3c(Cl)cccc3Cl)C4=O)cc2Cl)CCN1 [Example 1.919]
IC50 [1]: 0.34 µM

O=C1c2cnc(Nc3ccc4cnccc4c3)nc2OCN1c1c(Cl)cccc1Cl [Example 1.64]
IC50 [1]: > 5 µM

CC1CN(c2ccc(Nc3ncc4c(n3)OCN(c3c(Cl)cccc3Cl)C4=O)cc2Cl)CCN1 (stereo not shown) [Example 1.228]
IC50 [1]: 0.127 µM | IC50 [2]: 1.46 µM

CN(C)C1CCN(c2ccc(Nc3ncc4c(n3)SCN(c3c(Cl)cccc3Cl)C4=O)cc2C#N)CC1 [Example 1.239]
IC50 [1]: 0.508 µM | IC50 [2]: 0.765 µM

CCN(CC)CCOc1ccc(Nc2ncc3c(n2)OCN(c2c(Cl)cccc2Cl)C3=O)cc1 [Example 1.225]
IC50 [1]: 0.282 µM | IC50 [2]: 2.16 µM

O=C1c2cnc(Nc3ccc(N4CCNCC4)c(Cl)c3)nc2SCN1c1c(Cl)cccc1Cl [Example 1.236]
IC50 [1]: 0.335 µM | IC50 [2]: 1.77 µM

O=C1c2cnc(Nc3ccc4c(c3)CN(CC(F)F)CC4)nc2OCN1c1c(Cl)cccc1Cl [Example 1.65]
IC50 [1]: 1.33 µM

CC1Oc2nc(Nc3ccc(N4CCNCC4)c(CO)c3)ncc2C(=O)N1c1c(Cl)cccc1Cl (stereo not shown) [Example 1.62]
IC50 [1]: 0.123 µM | IC50 [2]: 2.8 µM

C[C@H]1CNCCN1c1ccc(Nc2ncc3c(n2)OCN(c2c(Cl)cccc2Cl)C3=O)cc1 [Example 1.172]
IC50 [1]: 0.066 µM | IC50 [2]: 4.9 µM

CC1(C)NCCc2cc(Nc3ncc4c(n3)SCN(c3c(Cl)cccc3Cl)C4=O)ccc21 [Example 1.246]
IC50 [1]: 0.061 µM | IC50 [2]: 2.44 µM

CC1(C)CNCc2cc(Nc3ncc4c(n3)SCN(c3c(Cl)cccc3Cl)C4=O)ccc21 [Example 1.231]
IC50 [1]: 0.142 µM | IC50 [2]: 2.23 µM

CN1CCN(c2ccc(Nc3ncc4c(n3)SCN(c3c(Cl)cccc3Cl)C4=O)cc2)CC1 [Example 1.230]
IC50 [1]: 0.561 µM | IC50 [2]: 4.94 µM

CCN1CCN(c2ccc(Nc3ncc4c(n3)OCN(c3c(Cl)cccc3Cl)C4=O)cc2)CC1 [Example 1.18]
IC50 [1]: 0.192 µM

O=C1c2cnc(Nc3ccc(N4CCNCC4CO)cc3)nc2OCN1c1c(Cl)cccc1Cl (stereo not shown) [Example 1.13]
IC50 [1]: 0.144 µM

Cc1cc(Nc2ncc3c(n2)SCN(c2c(Cl)cccc2Cl)C3=O)ccc1N1CCNCC1 [Example 1.235]
IC50 [1]: 0.111 µM | IC50 [2]: 2.9 µM

CN(C)C1CCN(c2ccc(Nc3ncc4c(n3)SCN(c3c(Cl)cccc3Cl)C4=O)cc2)CC1 [Example 1.232]
IC50 [1]: 0.273 µM | IC50 [2]: 1.12 µM

CN1CCN(c2ccc(Nc3ccc4c(n3)OCN(c3c(Cl)cccc3Cl)C4=O)cc2)CC1 [Example 1.31, 3-(2,6-dichlorophenyl)-7-(4-(4-methylpiperazin-1-yl)phenylamino)-2H-pyrido[3,2-e][1,3]oxazin-4(3H)-one]
IC50 [1]: 30 µM

O=C(CO)N1CCc2ccc(Nc3ncc4c(n3)OCN(c3c(Cl)cccc3Cl)C4=O)cc2C1 [Example 1.7]
IC50 [1]: 0.074 µM

O=C1c2cnc(Nc3ccc(N4CCNCC4)cc3)nc2OCN1c1ccccc1Cl [Example 1.9]
IC50 [1]: 0.193 µM

CCN1Cc2cc(Nc3ncc4c(n3)OCN(c3c(Cl)cccc3Cl)C4=O)ccc2C(C)(C)C1 [Example 1.22]
IC50 [1]: 0.03 µM

CC1CNCCN1c1ccc(Nc2ncc3c(n2)OCN(c2c(Cl)cccc2Cl)C3=O)cc1 (stereo not shown) [Example 1.26]
IC50 [1]: 0.088 µM

CN1CCN(c2ccc(Nc3ncc4c(n3)OCN(c3c(F)cccc3Cl)C4=O)cc2)CC1 [Example 1.25]
IC50 [1]: 0.068 µM

CC(C)N1CCN(c2ccc(Nc3ncc4c(n3)OCN(c3c(Cl)cccc3Cl)C4=O)cc2)CC1 [Example 1.19]
IC50 [1]: 0.206 µM

O=C(CO)N1CCN(c2ccc(Nc3ncc4c(n3)OCN(c3c(Cl)cccc3Cl)C4=O)cc2)CC1 [Example 1.8]
IC50 [1]: 0.162 µM

CC1(C)CNCc2cc(Nc3ncc4c(n3)OCN(c3ccc(F)cc3Cl)C4=O)ccc21 [Example 1.14]
IC50 [1]: 0.173 µM

Reference: patent US10807994B2, “Heterocyclic compounds and uses thereof” (NUVATION BIO INC., priority 2017, dated 2020)
